The NIST ThermoML archive (doi:10.1021/acs.jced.5b00654)
Several values for one entry are separate records, joined by “and”; a condition that tells them apart may be missing. Identical values can stand only once. ± gives the expanded uncertainty stated by the source.

Conditions: Fluid (supercritical or subcritical phases); for mass density: Buoyancy - hydrostatic balance with magnetic suspension - one sinker; for viscosity: Vibrating wire viscometry

CCCC [butane]
Conditions	mass density [kg/m3]	viscosity
428.2 K, 3793.8 kPa	137.58 ± 2.4	0.01557 ± 0.00091 mPa·s
428.2 K, 4030 kPa	274.89 ± 3.2	0.02934 ± 0.001 mPa·s
428.2 K, 4030.1 kPa	274.9 ± 3.2	0.02934 ± 0.001 mPa·s
428.2 K, 22973 kPa	480.02 ± 0.54	0.08495 ± 0.0014 mPa·s
428.21 K, 1539.8 kPa	29.634 ± 0.069	0.01094 ± 0.00086 mPa·s
428.21 K, 1540.1 kPa	29.642 ± 0.069	0.01093 ± 0.00086 mPa·s
428.21 K, 22974 kPa	480.02 ± 0.54	0.08503 ± 0.0014 mPa·s and 0.08492 ± 0.0014 mPa·s
428.22 K, 3107.8 kPa	80.455 ± 0.26	0.01252 ± 0.00087 mPa·s
428.23 K, 3108.6 kPa	80.486 ± 0.26	0.01253 ± 0.00087 mPa·s
428.34 K, 3805.1 kPa	138.83 ± 29	0.01567 ± 0.0033 mPa·s
428.39 K, 3806.5 kPa	138.8 ± 0.82	0.01569 ± 0.0009 mPa·s
448.09 K, 4846.2 kPa	174.16 ± 1.2	0.01886 ± 0.00093 mPa·s
448.11 K, 5054.5 kPa	201.47 ± 1.2	0.02122 ± 0.00095 mPa·s
448.11 K, 5054.8 kPa	201.47 ± 1.2	0.02124 ± 0.00095 mPa·s
448.11 K, 6144.8 kPa	304.18 ± 0.71	0.0341 ± 0.001 mPa·s
448.11 K, 6145 kPa	304.17 ± 0.71	0.0341 ± 0.001 mPa·s
448.13 K, 4161.6 kPa	114.81 ± 0.93	0.01481 ± 0.00089 mPa·s and 0.01479 ± 0.00089 mPa·s
448.13 K, 4847 kPa	174.1 ± 1.2	0.01885 ± 0.00093 mPa·s
448.13 K, 5203.2 kPa	222.02 ± 1.2	0.02331 ± 0.00096 mPa·s
448.13 K, 5203.5 kPa	222.03 ± 1.2	0.02333 ± 0.00096 mPa·s
448.13 K, 7189.8 kPa	340.36 ± 0.53	0.04055 ± 0.0011 mPa·s
448.14 K, 7191 kPa	340.37 ± 0.53	0.04061 ± 0.0011 mPa·s
448.14 K, 18184 kPa	440.74 ± 0.51	0.06811 ± 0.0013 mPa·s
448.14 K, 18187 kPa	440.74 ± 0.51	0.06813 ± 0.0013 mPa·s
448.14 K, 29460 kPa	478.91 ± 0.54	0.08497 ± 0.0014 mPa·s
448.15 K, 220.17 kPa	3.4915 ± 0.018	0.01102 ± 0.00086 mPa·s
448.15 K, 618.43 kPa	10.135 ± 0.029	0.0111 ± 0.00086 mPa·s
448.15 K, 618.6 kPa	10.141 ± 0.029	0.01109 ± 0.00086 mPa·s
448.15 K, 807.6 kPa	13.453 ± 0.035	0.01114 ± 0.00086 mPa·s
448.15 K, 1661.9 kPa	30.078 ± 0.068	0.01146 ± 0.00086 mPa·s
448.15 K, 3073.3 kPa	66.943 ± 0.17	0.01257 ± 0.00087 mPa·s
448.15 K, 5551.9 kPa	263.05 ± 0.92	0.02811 ± 0.001 mPa·s
448.15 K, 5553.7 kPa	263.02 ± 0.92	0.02811 ± 0.001 mPa·s
448.15 K, 11528 kPa	400.23 ± 0.48	0.05478 ± 0.0012 mPa·s
448.15 K, 11529 kPa	400.23 ± 0.48	0.05477 ± 0.0012 mPa·s
448.15 K, 14319 kPa	420.46 ± 0.5	0.06101 ± 0.0012 mPa·s
448.15 K, 29472 kPa	478.91 ± 0.54	0.08489 ± 0.0014 mPa·s
448.16 K, 220.38 kPa	3.4965 ± 0.018	0.01101 ± 0.00086 mPa·s
448.16 K, 430.17 kPa	6.9362 ± 0.024	0.01106 ± 0.00086 mPa·s
448.16 K, 431.02 kPa	6.95 ± 0.024	0.01106 ± 0.00086 mPa·s
448.16 K, 508.5 kPa	8.2591 ± 0.026	0.01107 ± 0.00086 mPa·s
448.16 K, 509.69 kPa	8.28 ± 0.026	0.01107 ± 0.00086 mPa·s
448.16 K, 807.76 kPa	13.456 ± 0.035	0.01115 ± 0.00086 mPa·s
448.16 K, 1662.2 kPa	30.086 ± 0.068	0.01146 ± 0.00086 mPa·s
448.16 K, 2073.7 kPa	39.305 ± 0.09	0.01169 ± 0.00086 mPa·s
448.16 K, 2511.8 kPa	50.321 ± 0.12	0.01201 ± 0.00087 mPa·s
448.16 K, 2512.1 kPa	50.329 ± 0.12	0.012 ± 0.00087 mPa·s
448.16 K, 3073.3 kPa	66.941 ± 0.17	0.01257 ± 0.00087 mPa·s
448.16 K, 6551.1 kPa	321.12 ± 0.62	0.03695 ± 0.0011 mPa·s
448.16 K, 6551.4 kPa	321.12 ± 0.62	0.03694 ± 0.0011 mPa·s
448.16 K, 8139.4 kPa	359.98 ± 0.51	0.04474 ± 0.0011 mPa·s
448.16 K, 8140.6 kPa	359.99 ± 0.51	0.04466 ± 0.0011 mPa·s
448.16 K, 23152 kPa	460.08 ± 0.52	0.07601 ± 0.0014 mPa·s
448.17 K, 1158.4 kPa	19.932 ± 0.048	0.01125 ± 0.00086 mPa·s
448.17 K, 2073 kPa	39.287 ± 0.09	0.01169 ± 0.00086 mPa·s
448.17 K, 4498.3 kPa	138.72 ± 1	0.01627 ± 0.00091 mPa·s
448.17 K, 5346.6 kPa	240.34 ± 1.2	0.02533 ± 0.00098 mPa·s
448.17 K, 9537.4 kPa	380.12 ± 0.49	0.04948 ± 0.0012 mPa·s
448.17 K, 9538.6 kPa	380.13 ± 0.49	0.0494 ± 0.0012 mPa·s
448.17 K, 14321 kPa	420.46 ± 0.5	0.06093 ± 0.0012 mPa·s
448.17 K, 23154 kPa	460.09 ± 0.52	0.07593 ± 0.0014 mPa·s
448.18 K, 3433.7 kPa	79.735 ± 0.23	0.01307 ± 0.00088 mPa·s
448.18 K, 3433.9 kPa	79.739 ± 0.23	0.01308 ± 0.00088 mPa·s
448.18 K, 3747.8 kPa	92.905 ± 0.34	0.01367 ± 0.00088 mPa·s
448.18 K, 4498.1 kPa	138.68 ± 1	0.01625 ± 0.00091 mPa·s
448.18 K, 5346.7 kPa	240.34 ± 1.2	0.02534 ± 0.00098 mPa·s
448.19 K, 3747.9 kPa	92.91 ± 0.34	0.01367 ± 0.00088 mPa·s
448.23 K, 4727 kPa	160.07 ± 1.1	0.01777 ± 0.00092 mPa·s
448.23 K, 4727.1 kPa	160.07 ± 1.1	0.01776 ± 0.00092 mPa·s
448.27 K, 5784.6 kPa	281.65 ± 0.8	0.03063 ± 0.001 mPa·s
448.28 K, 5785.1 kPa	281.66 ± 0.8	0.03066 ± 0.001 mPa·s
